Data published in US20060241114A1, “Derivatives of azasugars as anticancer agents” (priority 2003, published 2006).

Experiments:
[1] = tested on: HT29 (colorectal adenocarcinoma); experiment: In vitro growth inhibition screen (sulphorhodamine B), HT29; format: cell-based, human; conditions: HT29 cells, incubated for 48 hours, sulphorhodamine B dye; read-out: GI50 (concentration which inhibits the cell growth by 50%), HT29 Colorectal adenocarcinoma
How it was run: (§1)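 GI50 (50% growth inhibition) from sulphorhodamine B staining of TCA-fixed cells, OD 490. Compounds at ten-fold dilutions from ≧100 μM down to 10 nM were added a day after plating and left 48 h; culture in RPMI 1640 with 10% FCS, 37 °C, 5% CO2.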

[2] = tested on: MCF7ADR (adriamycin resistant breast adenocarcinoma); experiment: In vitro growth inhibition screen (sulphorhodamine B), MCF7ADR; format: cell-based, human; conditions: MCF7ADR cells, incubated for 48 hours, sulphorhodamine B dye; read-out: GI50 (concentration which inhibits the cell growth by 50%), MCF7ADR Adriamycin Resistant Breast adenocarcinoma
How it was run: as §1

[3] = tested on: DU145 (prostate carcinoma); experiment: In vitro growth inhibition screen (sulphorhodamine B), DU145; format: cell-based, human; conditions: DU145 cells, incubated for 48 hours, sulphorhodamine B dye; read-out: GI50 (concentration which inhibits the cell growth by 50%), DU145 Prostate carcinoma
How it was run: as §1

LOX (melanoma) = experiment: In vitro growth inhibition screen (sulphorhodamine B), LOX; format: cell-based, human; conditions: LOX cells, incubated for 48 hours, sulphorhodamine B dye; read-out: GI50 (concentration which inhibits the cell growth by 50%), LOX Melanoma
How it was run: as §1

[4] = tested on: MCF7 (breast adenocarcinoma); experiment: In vitro growth inhibition screen (sulphorhodamine B), MCF7; format: cell-based, human; conditions: MCF7 cells, incubated for 48 hours, sulphorhodamine B dye; read-out: GI50 (concentration which inhibits the cell growth by 50%), MCF7 Breast adenocarcinoma
How it was run: as §1

[5] = tested on: U251 (human glioblastoma); experiment: In vitro growth inhibition screen (sulphorhodamine B), U251; format: cell-based; conditions: U251 cells, incubated for 48 hours, sulphorhodamine B dye; read-out: GI50 (concentration which inhibits the cell growth by 50%), U251 Human glioblastoma astrocytoma
How it was run: as §1

| Compound | GI50 [1] [µM] | GI50 [2] [µM] | GI50 [3] [µM] | GI50 (LOX (melanoma)) [µM] | GI50 [4] [µM] | GI50 [5] [µM] |
| --- | --- | --- | --- | --- | --- | --- |
| C=CCN1C(=O)[C@H](OCc2ccccc2)[C@@H](OCc2ccccc2)[C@H](OCc2ccccc2)[C@H]1CN1C(=O)c2ccccc2C1=O [Compound No. 83, N-Allyl-2,3,4-tri-O-benzyl-6-(1H-isoindole-1,3(2H)-diketo)-D-gluco-δ-lactam] | 80.1 | 6.7 | 55.2 | 51.4 | 13.1 | > 140 |
| CCCN1C(=O)[C@H](OCc2ccccc2)[C@@H](OCc2ccccc2)[C@H](OCc2ccccc2)[C@H]1CNC(=O)Nc1ccc(Cl)c(Cl)c1 [Compound No. 18, 2,3,4-Tri-O-benzyl-6-N-{[3,4-dichlorophenyl]aminocarbonylamino}-N-propyl-D-gluco-δ-lactam] | 2.2 | 2.9 | 2.5 | 2 | 2 | 2.6 |
| 6-N-{2-[1,5-Dideoxy-1,5-imino-glucit-6-ol]acetyl}-N-propyl-D-gluco-δ-lactam [Compound No. 67] | 106 | 75.4 | 81.6 | 67.6 | 107 | 91.5 |
| CCCN1C(=O)[C@H](O)[C@@H](O)[C@H](O)[C@H]1CNC(=O)Nc1ccc(C)cc1 [Compound No. 26, 6-N-{[p-Tolyl]aminocarbonylamino}-N-propyl-D-gluco-δ-lactam] | 209 | 235 | 278 | 116 | 136 | 520 |
| CCCN1C(=O)[C@H](OCc2ccccc2)[C@@H](OCc2ccccc2)[C@H](OCc2ccccc2)[C@H]1CNC(=O)Cn1ncn(-c2ccc(Cl)cc2)c1=O [Compound No. 57, 2,3,4-Tri-O-benzyl-6-N-{2-[4-chlorophenyl-3-(2H,4H)-1,2,4-triazol-3-onyl]acetyl}-N-propyl-D-gluco-δ-lactam] | 22.7 | 247 | 64.4 | 25.1 | 20.1 | 154 |

Continued by falling GI50 [1], values first:

| GI50 [1] [µM] | GI50 [2] [µM] | GI50 [3] [µM] | GI50 (LOX (melanoma)) [µM] | GI50 [4] [µM] | GI50 [5] [µM] | Compound |
| --- | --- | --- | --- | --- | --- | --- |
| 258 | 281 | 108 | 158 | 101 | 190 | CCCN1C(=O)[C@H](OCc2ccccc2)[C@@H](OCc2ccccc2)[C@H](OCc2ccccc2)[C@H]1CNC(=O)Cn1ncn(-c2ccc(N3CCN(c4ccc(Cl)cc4)CC3)cc2)c1=O [Compound No. 60, 2,3,4-Tri-O-benzyl-6-N-{2-[(4-(4-(chlorophenyl)-piperazin-1-yl)-phenyl)-3(2H,4H)-1,2,4-triazol-3-onyl]acetyl}-H-propyl-D-gluco-δ-lactam] |
| 49.4 | 115 | 116 | 112 | 13.6 | 16.8 | CCCN1C(=O)C(OCc2ccccc2)C(OCc2ccccc2)C(OCc2ccccc2)C1CNC(=O)Nc1ccc(OC)cc1 [Compound No. 4, 2,3,4-Tri-O-benzyl-6-N-{[p-methoxyphenyl]aminocarbonylamino}-N-propyl-D-gluco-δ-lactam] |
| 18.7 | 6.4 | 18.3 | 5.9 | 5.3 | 9.3 | C=CCN1C(=O)C(OCc2ccccc2)C(OCc2ccccc2)C(OCc2ccccc2)C1CN1C(=O)CCC1=O [Compound No. 84, N-Allyl-2,3,4-tri-O-benzyl-6-(2,5-diketopyrrolidino)-D-gluco-δ-lactam] |
| 4.7 | 10.2 | 4.1 | 3.3 | 8.2 | 4.1 | CCCN1C(=O)[C@H](OCc2ccccc2)[C@@H](OCc2ccccc2)[C@H](OCc2ccccc2)[C@H]1CNC(=O)CNc1ccc(F)cc1 [Compound No. 55, 2,3,4-Tri-O-benzyl-6-N-{2-[4-fluoroanilino]acetyl}-N-propyl-D-gluco-δ-lactam] |
